Data from patent US20050222270A1, “Prolonged administration of NMDA antagonist drug and safener drug to create improved stable neural homeostasis” (priority 2004, published 2005).

Key:
[1] = test system: patient with intractable post-herpetic trigeminal neuralgia; assay: Ketamine infusion with clonidine and MgSO4 in a patient with post-herpetic trigeminal neuralgia; format: in vivo, human
Text: A person had suffered for about 1.5 years from intractable post-herpetic trigeminal neuralgia (commonly known as shingles).

[2] = test system: patients with CRPS-1 (RSD); assay: Sustained ketamine infusion (with clonidine/magnesium) in patients with CRPS-1 (RSD) chronic neuropathic pain
Text: One of the coinventors herein (Correll, a physician) was involved in those tests, in Australia, using ketamine “mono-therapy” (i.e., without also administering a safener drug, such as clonidine).
In response, the anesthesiologist began to administer clonidine, a standard and conventional treatment for controlling high blood pressure. […] The anesthesiologist then began researching the scientific, medical, and patent literature on the subject, and soon discovered prior work done by the third inventor (Olney, a neurology researcher who specializes in animal models) on the subject of safener drugs that can reduce or prevent the toxic side effects of NMDA blocker drugs such as ketamine.
A person had suffered for roughly 9 years from intractable chronic pain, diagnosed as CRPS-1 and/or RSD, in their right leg and foot. This pain apparently was related to circulatory problems in their right leg. […] The contents of that article are incorporated herein by reference.
They were treated with […] of MgSO4 (infused in 5% dextrose in water, or D5W) and 0.1 mg clonidine (oral tablet) prior to ketamine. […] A second magnesium infusion was performed at 24 hr.

[3] = test system: patients with compulsive eating disorders (mainly anorexic); conditions: 2 to 9 infusions, 10-hour infusion period, 20 mg per hour; cited from earlier work
depressed patients = conditions: single one-time dosage; cited from earlier work

O=S(=O)([O-])[O-].[Mg+2] [MgSO4, magnesium sulfate]
effect of magnesium coadministered along with ketamine on pain ([1]; Example 3, 2 g MgSO4 prior to and 2 g later in ketamine infusion): synergistic pain-reducing effect

CNC1(c2ccccc2Cl)CCCCC1=O (stereo not drawn) [ketamine]
time patient remained pain-free after ketamine treatment ([2]; Example 1, person, 9-year CRPS-1/RSD in right leg and foot): roughly 18 months | pain status at last contact ([2]; Example 2, about 12 months after treatment): still pain-free | time until CNS side effects (slurring of speech) resolved ([2]; Example 2, ketamine infusion increased to 20 mg/hr): ≤ 24 h | time of ketamine infusion until essentially complete relief from pain ([2]; Example 2, person, ketamine 10-20 mg/hr i.v. with clonidine 0.1 mg every 12 hours and MgSO4): 2 to 3 days | patients with prolonged remission of compulsive thoughts about food, diet, and weight [3]: Nine of the 15 | pain status at last contact ([1]; Example 3, about 12 months after treatment, 48 hours ketamine infusion, clonidine started during first day, 2 x 2 g MgSO4): still largely abated | effect on depression (depressed patients): transient relief of depression

Clc1cccc(Cl)c1N=C1NCCN1 [clonidine]
effect of adding clonidine to ketamine infusion on pain ([2]; patient in ketamine mono-therapy test, clonidine given for rising blood pressure): substantial improvement in their pain reduction
